In patent publication US20080241280A1, “Usage of the Plant of Genus Ampelopsis and Extracts Thereof For Manufacture of Medicament and Functional Food” (priority 2004, published 2008):

Experiments:
Type in all cases: in vivo
C57/B6 mice [1] = assay: Pentobarbital (30 mg/kg i.p.) prolonged sleeping time in mice, loss of righting reflex; conditions: 30 mg/kg oral, 30 min prior to sodium pentobarbital 30 mg/kg i.p.; p<0.05, n>4
Experimental: C57/B6 mice were randomised into groups and orally administered; ECBRC-T2 (30 mg/kg), melatonin (30 mg/kg), Radix Valerianae (140 mg/kg) or vehicle (10 ml/kg H2O), 30 min prior to low dose injection of sodium pentobarbital (30 mg/kg, i/p.). The animals were then placed on a heating pad (37° C.) and their sleep latency to onset of sleep and the duration of sleep determined according to loss of righting reflex.

C57/B6 mice [2] = assay: Low dose pentobarbital (16 mg/kg i.p.) sleep time in mice, loss of righting reflex; conditions: for mice sleep time: Table 3, sodium pentobarbital 16 mg/kg i.p.
Experimental: C57/B6 mice were randomised into groups and orally administered; ECBRC-T2 (30 mg/kg), melatonin (30 mg/kg), Radix Valerianae (140 mg/kg) or vehicle (10 ml/kg H2O), 30 min prior to low dose injection of sodium pentobarbital (16 mg/kg, i/p.). The animals were then placed on a heating pad (37° C.) and their sleep latency to onset of sleep and the duration of sleep determined according to loss of righting reflex.
C57/B6 mice were randomised into groups and orally administered ECBRC-T1 (10,50,100,500 mg/kg), 30 min prior to low dose injection of sodium pentobarbital (16 mg/kg, i/p.). The animals were then placed on a heating pad (37° C.) and their sleep latency to onset of sleep and the duration of sleep determined according to loss of righting reflex. […]
The animals were then placed on a heating pad (37° C.) and their sleep latency to onset of sleep and the duration of sleep determined according to loss of righting reflex.

male C57/B6 mice = assay: Remote sensing (telemetric) determination of mice activities; conditions: Table 5, 20 mg/kg p.o., 6 hours after administration, control 2% EtOH
Experimental: Remote sensing determination of mice activities.
Telemetric activity and temperature monitors were surgically implanted sub-coetaneously into male C57/B6 mice under ketamie (Alfasan, batch number: 112319) and xyalsine (Alfasan, batch number: 073210) (75/10 mg/kg, i.p.) anaesthesia to remotely record activity Correct placement was determined using X-ray radiography.

SMILES | sleep time compared with the vehicle control group (C57/B6 mice [1]) | Sleep time (min ± SEM) (C57/B6 mice [2]; Table 1, 30 mg/kg oral, 30 min prior to sodium pentobarbital 16 mg/kg i.p.) [min] | mice sleep time (C57/B6 mice [2]; 10 mg/kg oral) [n = 4] | mice sleep time (C57/B6 mice [2]; 20 mg/kg oral) [n = 6] | mice sleep time (C57/B6 mice [2]; 30 mg/kg oral) [n = 6] | Telemetric Activity (% sleep time ± SEM) (male C57/B6 mice) [%] | Telemetric Activity (% sleep time ± SEM) (male C57/B6 mice; listed as zopiclone)
COc1ccc2[nH]cc(CCNC(C)=O)c2c1 [Melatonin, melatonin] | significantly difference | 63 ± 11 | 31 ± 4 | 63 ± 5 | 68 ± 8 | – | –
CN1CCN(C(=O)OC2c3nccnc3C(=O)N2c2ccc(Cl)cn2)CC1 (stereo not shown) [Zopiclone, zopiclone] | – | – | – | – | – | 66.6 ± 5.1 | significantly extended
